Results published in US20080312435A1, “Imine Compound” (TAISHO PHARMACEUTICAL CO., LTD., priority 2004, published 2008).

| SMILES | melting point [°C] |
| --- | --- |
| O=C(/N=c1\ccccn1CC1CC1)C(F)(F)F | 90 to 91 |
| O=C(/N=c1\ccccn1CC1CC1)c1cc(Cl)ccc1Cl | 53.5 to 54.5 |
| Cc1s/c(=N\C(=O)C(F)(F)C(F)(F)C(F)(F)F)n(CC2CC2)c1C | 92 to 94 |
| CCc1s/c(=N\C(=O)c2cccc(C(F)(F)F)c2F)n(CC)c1C | 115 to 117 |
| O=C(/N=c1\ccccn1CC1CC1)c1cccc(F)c1C(F)(F)F | 88 to 89 |
| Cc1c(C(C)C)s/c(=N\C(=O)c2cccc(C(F)(F)F)c2F)n1C | 89 to 91 |
| Cc1c(C(C)(C)C)s/c(=N\C(=O)c2cccc(Br)c2)n1C | 173 to 175 |
| Cc1c(C(C)(C)C)s/c(=N\C(=O)c2cccc(N(C)C)c2)n1C | 189 to 190 |
| Cc1c(C(C)(C)C)s/c(=N\C(=O)c2cccc(C#N)c2)n1C | 131 to 133 |
| Cc1c(C(C)(C)C)s/c(=N\C(=O)c2cccc(C(=O)O)c2)n1C | 250 to 252 |
| Cc1c(C(C)(C)C)s/c(=N\C(=O)c2cc(C(F)(F)F)ccc2F)n1C | 140 to 142 |
| Cc1c(C(C)(C)C)s/c(=N\C(=O)c2cccnc2)n1C.Cl | 202 to 203 |
| O=C(/N=c1\ccccn1CCc1ccccc1)c1cccc(C(F)(F)F)c1F | 117 to 118 |
| O=C(/N=c1\ccccn1CC1CC1)c1cc(F)ccc1C(F)(F)F | 88.5 to 89 |
| CCn1c(C)c(C(C)(C)C)s/c1=N\C(=O)C(F)(F)C(F)(F)C(F)(F)F | 113 to 115 |
| CCCn1c(C)c(C(C)(C)C)s/c1=N\C(=O)c1cccc(C(F)(F)F)c1 | 172 to 174 |
| O=C(/N=c1\ccccn1CC1CC1)c1cc(C(F)(F)F)ccc1F | 127 to 127.5 |
| O=C(/N=c1\ccccn1CC1CC1)c1cccc(C(F)(F)F)c1 | 105.5 to 106.5 |
| O=C(/N=c1\ccc(C(F)(F)F)cn1CC1CC1)c1ccccc1C(F)(F)F | 93 to 93.5 |
| O=C(/N=c1\ccc(C(F)(F)F)cn1CC1CC1)c1cc(C(F)(F)F)ccc1F | 109 to 110 |

| SMILES | melting point [°C] |
| --- | --- |
| CCOC(=O)c1s/c(=N\C(=O)c2cccc(C(F)(F)F)c2)n(CC2CC2)c1C | 115 to 116 |
| Cc1c(C(=O)O)s/c(=N\C(=O)c2cccc(C(F)(F)F)c2)n1CC1CC1 | 291 to 293 |
| Cc1c(C(=O)NC(C)C)s/c(=N\C(=O)c2cccc(C(F)(F)F)c2)n1CC1CC1 | 212 to 214 |
| Cc1c(C(=O)N2CCCC2)s/c(=N\C(=O)c2cccc(C(F)(F)F)c2)n1CC1CC1 | 125 to 127 |
| CC(C)c1s/c(=N\C(=O)c2cncc(Br)c2)n(CC2CC2)c1C(F)(F)F | 139 to 141 |
| CCn1c(C)c(Cl)s/c1=N\C(=O)c1cccc(C(F)(F)F)c1F | 158 to 160 |
| C=CCn1c(-c2ccccc2)c(-c2ccccc2)s/c1=N\C(=O)c1ccccc1 | 141 to 143 |
| Cc1ccccc1C(=O)/N=c1\sc2ccccc2n1CC1CC1 | 115 to 117 |
| CN(C)c1cccc(C(=O)/N=c2\sc3ccccc3n2CC2CC2)c1 | 156 to 158 |
| Cc1ncccc1C(=O)/N=c1\sc2ccccc2n1CC1CC1 | 181 to 183 |
| Cc1cc2s/c(=N\C(=O)c3ccccc3C)n(CC3CC3)c2cc1C | 160 to 161 |
| Cc1ccccc1C(=O)/N=c1\sc2cc(F)ccc2n1CC1CC1 | 143 to 145 |
| Cc1ccccc1C(=O)/N=c1/sc2cccc(Cl)c2n1CC1CC1 | 146 to 148 |
| Cc1ccccc1C(=O)/N=c1/sc2cccc(C)c2n1CC1CC1 | 133 to 134 |
| Cc1ccccc1C(=O)/N=c1/sc2cc(F)cc(F)c2n1CC1CC1 | 146 to 148 |
| COCCn1/c(=N/C(=O)c2cccc(C(F)(F)F)c2F)cc(C)n1C | 144 to 145 |
| COCCCn1/c(=N/C(=O)c2cccc(C(F)(F)F)c2F)cc(C)n1C | 88 to 90 |
| Cn1c(C(C)(C)C)c/c(=N\C(=O)C(F)(F)F)n1CC1CC1 | 122 to 124 |
| Cn1c(C(C)(C)C)c/c(=N\C(=O)c2cccc(OC(F)(F)C(F)F)c2)n1CC1CC1 | 110 to 111 |
| Cn1c(C(C)(C)C)c/c(=N\C(=O)c2cccc(Cl)c2Cl)n1CC1CC1 | 158 to 159 |

| SMILES | melting point [°C] |
| --- | --- |
| Cc1cccc(C(=O)/N=c2\cc(C(C)(C)C)n(C)n2CC2CC2)c1I | 147 to 148 |
| Cc1c(Br)cccc1C(=O)/N=c1\cc(C(C)(C)C)n(C)n1CC1CC1 | 138 to 139 |
| Cc1c(I)cccc1C(=O)/N=c1\cc(C(C)(C)C)n(C)n1CC1CC1 | 138 to 140 |
| Cc1ccc(C(=O)/N=c2\cc(C(C)(C)C)n(C)n2CC2CC2)c(Br)c1 | 153 to 154 |
| COc1ccc(C(F)(F)F)cc1C(=O)/N=c1\cc(C(C)(C)C)n(C)n1CC1CC1 | 99 to 101 |
| Cc1ccc(F)cc1C(=O)/N=c1\cc(C(C)(C)C)n(C)n1CC1CC1 | 161 to 162 |
| Cc1ccc(C(=O)/N=c2\cc(C(C)(C)C)n(C)n2CC2CC2)cc1Cl | 135 to 136 |
| Cc1c(C(C)(C)C)n(C)n(CC2CC2)/c1=N/C(=O)c1cccc(C(F)(F)F)c1F | 149 to 150 |
| Cn1c(C2CC2)c/c(=N\C(=O)c2cccc(C(F)(F)F)c2F)n1-c1ccccc1 | 168.5 to 169.5 |
| Cn1c(C(F)(F)F)c(-c2ccccc2)/c(=N\C(=O)c2cccc(C(F)(F)F)c2F)n1C | 169.5 to 170 |
| Cn1cccc/c1=N\C(=O)c1cccc(C(F)(F)F)c1F | 146 to 147 |
| Cn1c(C(C)(C)C)c/c(=N\C(=S)Nc2ccc(F)cc2)n1CC1CC1 | 147.5 to 149.5 |
| CC(C)(C)c1nn(CC2CC2)/c(=N/C(=O)c2cc(C(F)(F)F)ccc2F)s1 | 47 to 49 |
| CCn1cccc/c1=N\C(=O)c1cccc(C(F)(F)F)c1F | 93 to 95 |
| O=C(/N=c1\sccn1CC1CC1)c1cccc(C(F)(F)F)c1F | 96 to 97 |
| CCn1c(C)cs/c1=N\C(=O)c1cccc(C(F)(F)F)c1F | 48 to 50 |
| Cc1cn(C)/c(=N/C(=O)c2cccnc2)s1 | 173 to 174 |
| Cc1s/c(=N\C(=O)c2cccc(C(F)(F)F)c2)n(C)c1C | 110 to 111 |
| CCCCn1cccc/c1=N\C(=O)c1cccc(C(F)(F)F)c1F | 51 to 52 |
| CCC(CC)C(=O)/N=c1\sc(C)c(C)n1CC1CC1 | 67 to 69 |

The remaining lines, values ahead:

| melting point [°C] | SMILES |
| --- | --- |
| 89 to 91 | Cc1c(C(C)C)s/c(=N\C(=O)c2cccc(C(F)(F)F)c2)n1CC1CC1 |
| 173 to 175 | Cc1ccccc1C(=O)/N=c1\sc(C(C)(C)C)c(C)n1C |
| 192 to 193 | COC(=O)c1cccc(C(=O)/N=c2\sc(C(C)(C)C)c(C)n2C)c1 |
| 176 to 178 | Cc1c(C(C)(C)C)s/c(=N\C(=O)c2cccc(F)c2F)n1C |
| 138 to 140 | COc1ccc(C(=O)/N=c2\sc(C(C)(C)C)c(C)n2C)c(OC)c1 |
| 106 to 107 | Cc1c(C(C)(C)C)s/c(=N\C(=O)c2ccccc2)n1CC1CC1 |
| 178 to 180 | Cc1c(C(C)(C)C)s/c(=N\C(=O)c2ccccc2O)n1CC1CC1 |
| 89 to 90 | CCN(CC)c1cccc(C(=O)/N=c2\sc(C(C)(C)C)c(C)n2CC2CC2)c1 |
| 134 to 136 | CCN(CC)c1ccc(C(=O)/N=c2\sc(C(C)(C)C)c(C)n2CC2CC2)cc1 |
| 118 to 120 | Cc1c(C(C)(C)C)s/c(=N\C(=O)c2cccc(N3CCCC3)c2)n1CC1CC1 |
| 114 to 115 | Cc1c(C(C)(C)C)s/c(=N\C(=O)c2cccc(N3CCOCC3)c2)n1CC1CC1 |
| 123 to 124 | Cc1c(C(C)(C)C)s/c(=N\C(=O)c2ccc(F)c(C(F)(F)F)c2)n1CC1CC1 |
| 100 to 102 | Cc1c(C(C)(C)C)s/c(=N\C(=O)c2cc(F)cc(C(F)(F)F)c2)n1CC1CC1 |
| 122 to 124 | Cc1c(C(C)(C)C)s/c(=N\C(=O)c2ccc(Cl)c(C(F)(F)F)c2)n1CC1CC1 |
| 131 to 132 | CCCNc1ccc(C(F)(F)F)cc1C(=O)/N=c1\sc(C(C)(C)C)c(C)n1CC1CC1 |
| 100 to 102 | Cc1c(C(C)(C)C)s/c(=N\C(=O)c2cc(C(F)(F)F)ccc2N2CCC2)n1CC1CC1 |
| 86 to 87 | Cc1c(C(C)(C)C)s/c(=N\C(=O)c2cc(C(F)(F)F)ccc2N2CCOCC2)n1CC1CC1 |

| melting point [°C] | SMILES |
| --- | --- |
| 195 to 197 | Cc1c(C(C)(C)C)s/c(=N\C(=O)c2ccc(F)c(C#N)c2)n1CC1CC1 |
| 228 to 230 | Cc1ccc(C(=O)/N=c2\sc(C(C)(C)C)c(C)n2CC2CC2)cn1 |
| 152 to 154 | Cc1c(C(C)(C)C)s/c(=N\C(=O)c2cncc(Br)c2)n1CC1CC1 |
| 151 to 153 | Cc1c(C(C)(C)C)s/c(=N\C(=O)c2cccnc2OC(C)C)n1CC1CC1 |
| 111 to 114 | Cc1c(C(C)(C)C)s/c(=N\C(=O)c2cccnc2OC2C=CC=CC2)n1CC1CC1 (stereo not shown) |
| 124 to 126 | COc1cc(C(=O)/N=c2\sc(C(C)(C)C)c(C)n2CC2CC2)c(OC)nn1 |
| 97 to 98 | Cc1c(C(C)(C)C)s/c(=N\C(=O)c2cccnc2N2CCCC2)n1CC1CC1 |
| 127 to 128 | COc1cc(C(=O)/N=c2\sc(C(C)(C)C)c(C)n2CC2CC2)cc(Cl)n1 |
| 104 to 105 | CCCc1c(C(=O)/N=c2\sc(C(C)(C)C)c(C)n2CC2CC2)cnn1-c1ccccc1 |
| 189 to 191 | Cc1c(C(C)(C)C)s/c(=N\C(=O)C2CCC2)n1CC1CC1 |
| 92 to 94 | Cc1c(C(C)(C)C)s/c(=N\C(=O)Cc2ccccc2)n1CC1CC1 |
| 157 to 159 | Cc1c(C(C)(C)C)s/c(=N\C(=O)Cc2cccs2)n1CC1CC1 |
| 128 to 129 | COc1cc(Cl)ccc1C(=O)/N=c1\cc(C(C)(C)C)n(C)n1CC1CC1 |
| 63 to 65 | Cc1ccc(C(F)(F)F)cc1C(=O)/N=c1\sc(C(C)(C)C)nn1CC1CC1 |
| 94 to 95 | COc1ccncc1C(=O)/N=c1\sc(C(C)(C)C)nn1CC1CC1 |
| 113 to 115 | Cc1s/c(=N\C(=O)c2cc(Cl)ccc2Cl)n(CC2CC2)c1C |
| 154 to 155 | Cc1s/c(=N\C(=O)c2ccc(Br)cc2F)n(CC2CC2)c1C |
